We go through 18 molecules from ChEMBL document CHEMBL4152276, “Design, synthesis and biological evaluation of N-phenyl-(2,4-dihydroxypyrimidine-5-sulfonamido)benzoyl hydrazide derivatives as thymidylate synthase (TS) inhibitors and as potential antitumor drugs” (Eur J Med Chem, 2018).

What all share (format): functional, cell-based
The subject of one assay is MDA-MB-231. The experiment in a line: Antiproliferative activity against human MDA-MB-231 cells after 24 hrs by MTT assay. The conditions noted are these: MDA-MB-231, 24 h.
In a further assay the test system is OVCAR-3. Description: Antiproliferative activity against human OVCAR3 cells after 24 hrs by MTT assay. The conditions noted are these: OVCAR-3, 24 h.
Another assay deals with SGC-7901. The experiment in a line: Antiproliferative activity against human SGC7901 cells after 24 hrs by MTT assay. As to conditions: SGC-7901, 24 h.
The test system of the next assay is A549. Description: Antiproliferative activity against human A549 cells after 24 hrs by MTT assay. As to conditions: A549, 24 h.

Where only a bound is given, the exact number is not on record here.

`O=C(NNC(=O)c1ccccc1Cl)c1ccc(NS(=O)(=O)c2cnc(O)nc2O)cc1`: the half-maximal inhibitory concentration (IC50) in the assay with MDA-MB-231 turned out to be 13.9 µM; in the assay on OVCAR-3 it was 5.22 µM; with SGC-7901 it was 3.24 µM; with A549 it was 1.9 µM.

Take `Cc1ccccc1NNC(=O)c1ccccc1NS(=O)(=O)c1cnc(O)nc1O`: the IC50 in the assay on MDA-MB-231, in the assay on OVCAR-3, with SGC-7901 and with A549 was more than 20 µM in each case.

Consider `Cc1cccc(NNC(=O)c2cccc(NS(=O)(=O)c3cnc(O)nc3O)c2)c1`, for which the IC50 in the assay with MDA-MB-231, in the assay on OVCAR-3, with SGC-7901 and with A549 was more than 20 µM throughout.

Consider `O=C(NNc1ccccc1F)c1ccccc1NS(=O)(=O)c1cnc(O)nc1O`, for which the IC50 in the assay with MDA-MB-231 is more than 20 µM; in the assay on OVCAR-3, 9.57 µM; with SGC-7901, more than 20 µM; with A549 it was 9.61 µM.

For the molecule `CCCCOc1ccc(C(=O)NNC(=O)c2ccccc2NS(=O)(=O)c2cnc(O)nc2O)cc1`, the IC50 was 6.83 µM in the assay with MDA-MB-231, 5.01 µM with OVCAR-3, 6.89 µM in the assay on SGC-7901 and 4.96 µM in the assay on A549.

Consider `O=C(NNC(=O)c1cccc(Cl)c1)c1ccc(NS(=O)(=O)c2cnc(O)nc2O)cc1`, for which the IC50 turned out to be 4.16 µM with MDA-MB-231, 7.71 µM with OVCAR-3, 8.61 µM with SGC-7901 and 2.29 µM in the assay with A549.

Regarding `Cc1ccccc1C(=O)NNC(=O)c1cccc(NS(=O)(=O)c2cnc(O)nc2O)c1`, the IC50 in the assay on MDA-MB-231 was 18.1 µM; in the assay on OVCAR-3, more than 20 µM; in the assay on SGC-7901, more than 20 µM; with A549, 8.01 µM.

For the molecule `O=C(NNC(=O)c1cccc(NS(=O)(=O)c2cnc(O)nc2O)c1)c1cccc(Cl)c1`, the IC50 stood at 3.18 µM with MDA-MB-231, 13.5 µM in the assay on OVCAR-3, 7.31 µM in the assay with SGC-7901 and 6 µM with A549.

Turning to `O=C(NNc1ccc(F)cc1)c1ccccc1NS(=O)(=O)c1cnc(O)nc1O`, the IC50 in the assay with MDA-MB-231, in the assay with OVCAR-3, with SGC-7901 and with A549 was more than 20 µM each time.

For the molecule `O=C(NNc1cccc(Cl)c1)c1cccc(NS(=O)(=O)c2cnc(O)nc2O)c1`, the IC50 came to 7.76 µM in the assay with MDA-MB-231, 8.04 µM in the assay with OVCAR-3, 11.8 µM with SGC-7901 and 6.64 µM in the assay on A549.

Turning to `O=C(NNC(=O)c1ccccc1NS(=O)(=O)c1cnc(O)nc1O)c1ccccc1Cl`, the IC50 in the assay on MDA-MB-231 was found to be 8.31 µM; with OVCAR-3 it was 18.2 µM; in the assay on SGC-7901 it was 2.41 µM; in the assay on A549, 5.29 µM.

In the case of `Cc1ccccc1C(=O)NNC(=O)c1ccc(NS(=O)(=O)c2cnc(O)nc2O)cc1`, the IC50 was 7.04 µM in the assay with MDA-MB-231, more than 20 µM in the assay on OVCAR-3, more than 20 µM in the assay on SGC-7901 and 15.1 µM in the assay with A549.

Regarding `O=C(NNc1ccc(F)cc1)c1cccc(NS(=O)(=O)c2cnc(O)nc2O)c1`, the IC50 in the assay with MDA-MB-231, in the assay with OVCAR-3, in the assay on SGC-7901 and in the assay on A549 was more than 20 µM in each case.

Consider `O=C(NNc1ccccc1F)c1cccc(NS(=O)(=O)c2cnc(O)nc2O)c1`, for which the IC50 in the assay on MDA-MB-231 was more than 20 µM; in the assay on OVCAR-3, 17 µM; with SGC-7901, more than 20 µM; with A549, 11.1 µM.

With `O=C(NNc1ccccc1F)c1ccc(NS(=O)(=O)c2cnc(O)nc2O)cc1`, the IC50 in the assay on MDA-MB-231 is more than 20 µM; in the assay on OVCAR-3 it was more than 20 µM; with SGC-7901, 16 µM; with A549, 11.7 µM.

In the case of `Cc1cccc(NNC(=O)c2ccccc2NS(=O)(=O)c2cnc(O)nc2O)c1`, the IC50 in the assay on MDA-MB-231, in the assay on OVCAR-3, in the assay with SGC-7901 and in the assay on A549 was more than 20 µM in each case.

`Cc1ccccc1C(=O)NNC(=O)c1ccccc1NS(=O)(=O)c1cnc(O)nc1O`: the IC50 is 5.57 µM with MDA-MB-231, more than 20 µM with OVCAR-3, 13 µM in the assay on SGC-7901 and 5.45 µM with A549.

In the case of `Cc1ccc(C(=O)NNC(=O)c2ccc(NS(=O)(=O)c3cnc(O)nc3O)cc2)cc1`, the IC50 in the assay on MDA-MB-231 was more than 20 µM; in the assay with OVCAR-3, more than 20 µM; in the assay with SGC-7901 it was more than 20 µM; in the assay with A549 it was 15.9 µM.
